# Measurements from ChEMBL document CHEMBL1250491, “Multivariate QSAR study on the antimutagenic activity of flavonoids against 3-NFA on Salmonella typhimurium TA98” (2010).
# Tested on: Salmonella typhimurium
# Assay: Antimutagenic activity in Salmonella Typhimurium TA98 assessed as inhibition of 3-nitrofluoranthene-induced mutation by Ames test
# Assay type: functional, Salmonella enterica subsp. enterica serovar Typhimurium
row,Structure (SMILES),pID50
1,COc1ccccc1-c1cc(=O)c2ccccc2o1,5.046
2,COc1ccc2oc(-c3ccccc3)c(O)c(=O)c2c1,5.62
3,O=c1cc(-c2ccccc2)oc2cccc(O)c12 [5-HYDROXYFLAVONE],5.357
4,O=c1cc(-c2ccccc2)oc2ccc(O)cc12 [6-HYDROXYFLAVONE],6.699
5,O=c1cc(-c2ccccc2)oc2cc(O)ccc12 [7-HYDROXYFLAVONE],5.456
6,O=c1cc(-c2ccc(O)cc2)oc2cc(O)cc(O)c12 [APIGENIN],7
7,O=c1cc(-c2ccc(O)cc2)oc2cc(O[C@@H]3O[C@H](CO)[C@@H](O)[C@H](O)[C@H]3O)cc(O)c12 [APIGETRIN],5.62
8,O=c1cc(-c2ccccc2)oc2cc(O)cc(O)c12 [CHRYSIN],6
9,O=c1c(O)c(-c2ccccc2)oc2ccccc12 [FLAVONOL],6.538
10,O=c1cc(-c2ccc(O)c(O)c2)oc2cc(O[C@@H]3O[C@H](CO)[C@@H](O)[C@H](O)[C@H]3O)cc(O)c12 [GALUTEOLIN],5.092
11,COc1ccc([C@@H]2CC(=O)c3c(O)cc(O)cc3O2)cc1O [HESPERETIN],6.097
12,COc1cc(-c2oc3cc(O)cc(O)c3c(=O)c2O)ccc1O [ISORHAMNETIN],6.097
13,O=c1c(O)c(-c2ccc(O)cc2)oc2cc(O)cc(O)c12 [KAEMPFEROL],6.538
14,O=c1c(O)c(-c2ccc(O)cc2O)oc2cc(O)cc(O)c12 [MORIN],6.155
15,O=c1c(O)c(-c2cc(O)c(O)c(O)c2)oc2cc(O)cc(O)c12 [MYRICETIN],6.222
16,O=C1C[C@@H](c2ccc(O)cc2)Oc2cc(O)cc(O)c21 [NARINGENIN],5.886
17,O=c1c(O)c(-c2ccc(O)c(O)c2)oc2cc(O)cc(O)c12 [QUERCETIN],5.143
18,C[C@@H]1O[C@@H](OC[C@H]2O[C@@H](Oc3c(-c4ccc(O)c(O)c4)oc4cc(O)cc(O)c4c3=O)[C@H](O)[C@@H](O)[C@@H]2O)[C@H](O)[C@H](O)[C@H]1O [RUTIN],5.022
19,COc1ccc(-c2cc(=O)c3c(OC)c(OC)c(OC)c(OC)c3o2)cc1 [TANGERETIN],4.967
